Here are results for 62 compounds from a melting point compilation (Tetko et al.; mined from patent text by program, amines drawn as free bases though some values may be those of a salt).

Consider `CCCCCCCCCCCCOc1ccc(NC(=O)C(=O)OCC)cc1`, for which the melting point – broadly, the temperature of the solid-liquid transition – lay within 70.5 to 72 °C.

In turn, `O=C1CSCC(=O)NCCOCCN1` came in with a melting point of 186 to 188 °C.

`COCOc1c(C)cc(-c2ccc(C(=O)NCCOc3ccc(CC(Oc4ccccc4)C(=O)O)cc3)cc2)cc1C` (configuration not stated) displayed a melting point of 142 to 143 °C.

The compound `Cc1cccc(C)c1NC(=O)c1ccc(NC(=O)CN(C)C)cc1` gave a melting point of 276 to 278 °C.

In the case of `CN(C)CCOc1ccc(/C=C/C(=O)N2CC(CCl)c3c2cc(OCc2ccccc2)c2ncccc32)cc1` (configuration not stated), the melting point was 172 to 175 °C.

Consider `CC(C)(C)c1ccc(OC2CN(C(c3ccccc3)c3ccccc3)C2)cc1`, for which the melting point is 126 to 127 °C.

With `CC(=O)c1cc(F)ccc1Oc1nc2ccc(N=[N+]=[N-])cc2cc1Cc1ccccc1`, the melting point fell in the range of 127 to 130 °C.

Consider `O=C(O)CCCc1ccc(-c2ccccc2)cc1`, for which the melting point fell in the range of 118 to 119 °C.

The compound `CCCCCC(=N)NC(=O)Nc1ccc(Cl)cc1` registered a melting point of 175 to 179 °C.

`CON1C(C)(C)CC(=O)CC1(C)C` had a melting point of 35 to 38 °C.

In turn, `COC1CCC(O)C(CNC(C)=O)O1` (configuration not stated) showed a melting point of 117 to 118 °C.

With `Nc1ccc(OC2=C(Oc3ccc(N)cc3C(F)(F)F)C(F)(F)C(F)(F)C2(F)F)c(C(F)(F)F)c1`, the melting point is 88 to 93 °C.

The compound `O=[N+]([O-])c1cccc2c1C1OC1CC2` (configuration not stated) returned a melting point of 67 °C.

The compound `CN1CC(N(C(=O)c2ccc(Cl)cc2)c2ccccc2)CN1C` displayed a melting point of 104 to 108 °C.

Compound `CCNC(=O)c1sc(-n2ccc(OCc3ccccc3)cc2=O)cc1C` yielded a melting point of 158 to 160 °C.

As for `CN(C)c1ccc(NC(=O)CCC2(c3ccc(Cl)cc3)Nc3cccnc3N2)cc1` (configuration not stated), the melting point fell in the range of 216 to 218 °C.

In turn, `O=C(Nc1cccc(S(=O)(=O)NC2CC2)c1)c1cnn2c(C(F)F)cc(-c3ccc(C(F)(F)F)cc3)nc12` showed a melting point of 252 °C.

With `CC1(C)CCc2c(-c3ccoc3)nc3sc4c(NCCc5c[nH]cn5)ncnc4c3c2C1`, the melting point is 265 to 267 °C.

In turn, `CC(=NNc1ccc(C2=NNC(=O)CC2C)cc1)c1ccc(O)cc1O` (configuration not stated) returned a melting point of 259 to 261 °C.

Consider `O=[N+]([O-])c1c(Br)nn(Cc2ccc(Cl)cc2)c1NCc1ccccc1`, for which the melting point lay within 139 to 141 °C.

For the compound `COC(=O)C1=C(C)NC2=C(C(=O)OC2C)C1c1ccccc1Cl` (configuration not stated), the melting point was 228 to 233 °C.

`COCCOc1ncnc2[nH]ccc12` registered a melting point of 137 to 139 °C.

`COc1cccc([C@H]2O[C@H](CC(=O)NC(C)CC(=O)O)C(=O)N(CC(C)(C)C)c3ccc(Cl)cc32)c1OC` (some centres not stated) showed a melting point of 128 to 130 °C.

As for `O=C(Cc1ccc(CN2CCC(=O)C(C(c3ccccc3)c3ccccc3)C2)cc1)OCC(=O)c1ccccc1` (configuration not stated), the melting point was 99 to 110 °C.

As for `CC(=O)OC1CCC2(C)C3CCC4(C)C(C(C)=O)CCC4C3CC(Cl)C2(Cl)C1` (configuration not stated), the melting point amounted to 187 °C.

With `O=C(O)c1ccc(COCc2csc3nc(C(=O)NCCc4ccccc4)[nH]c(=O)c23)cc1`, the melting point lay in the range of 227 to 229 °C.

On to `COc1ccc(NC(=O)Cc2ccc(Cl)cc2)c(OC)c1`, for which the melting point is 134 to 135 °C.

Take `Cc1cc([N+](=O)[O-])cc(C(=O)Nc2nnn[nH]2)n1`: the melting point was more than 300 °C.

The compound `O=C(CCCCCBr)c1ccccc1` registered a melting point of 35 to 36 °C.

Compound `CCOC(=O)c1cnc2ccn(-c3ccccc3)n2c1=O` returned a melting point of 187 to 190 °C.

Take `O=C(O)Cn1c(=O)c2ccccc2n(CCCCN2CCC(OC(c3ccccc3)c3ccccc3)CC2)c1=O`: the melting point was 184 to 186 °C.

Compound `O=C1CCC(CCN2CCN(c3ccccn3)CC2)CC1` displayed a melting point of 104 to 106 °C.

Turning to `CS(=O)(=O)c1ccc(-c2oc(CO)cc(=O)c2Oc2ccc(F)cc2)cc1`, the melting point came to 206 °C.

On to `Cc1ccc(S(=O)(=O)NN=C(Cc2ccc(OCc3ccccc3)cc2)c2cc(OCc3ccccc3)cc(OCc3ccccc3)c2)cc1`, for which the melting point was 147 °C.

`COc1cc2ncc(C#N)c(Nc3ccc(F)c(Cl)c3)c2cc1NC(=O)C=CCN1CCC(N2CCCCC2)CC1` displayed a melting point of 140 to 144 °C.

`CC1(CSc2ccc(Cl)cc2)COC2(CCCCCCCCCCC2)OO1` (configuration not stated) yielded a melting point of 93 to 94 °C.

`Cc1cccc(-c2cccc(-c3nc(C)cc(Cl)n3)n2)c1`: the melting point came to 105 °C.

Regarding `COC(=O)c1nc2nc(COC(C)=O)cc(Cl)n2n1`, the melting point was 120 °C.

As for `N#CCc1ccccc1O`, the melting point was 118 °C.

Compound `CS(=O)c1cc(C(C)(C)C)c(O)c(C(C)(C)C)c1` (configuration not stated) came in with a melting point of 171 to 173 °C.

In turn, `Nc1nc2ccccc2c2c1ncn2CCCCNC(=O)c1cccc(Oc2ccccc2)c1` registered a melting point of 105 to 107 °C.

Turning to `Cc1cccc(COc2cccc(COc3ccc4ccccc4n3)c2)c1C(=O)O`, the melting point was in the range of 68 to 72 °C.

In turn, `O=[N+]([O-])c1cnc2ccc(F)cc2c1Nc1ccccc1F` returned a melting point of 161 to 162 °C.

Compound `CC1(C)CCc2c(N3CCSCC3)nc3sc4c(NCCCN5CCCC5=O)ncnc4c3c2C1` gave a melting point of 219 to 221 °C.

For the compound `CCCCc1nc2c(N)nc3ccccc3c2n1CCCCNS(=O)(=O)c1cccs1`, the melting point was 138 to 142 °C.

`O=C(O)CCCCCCCC(=O)Nc1cc(Cl)ccc1O`: the melting point lay within 117 to 118 °C.

In the case of `CC(C)(CCCC(=O)O)c1ccc2c(c1)C(=O)c1ccc(C(C)(C)CCCC(=O)O)cc1C2=O`, the melting point lay within 222 to 224 °C.

The compound `O=C1c2cc3nnn(Cn4cc(Br)cn4)c(=O)c3cc2OC2CCCN12` (configuration not stated) came in with a melting point of 180 to 181 °C.

In turn, `COc1ccc(C2=NN(C3CCN(C(=O)[C@H](C)N)CC3)C(=O)[C@@H]3CC=CC[C@H]23)cc1OC` returned a melting point of 101 to 103 °C.

In turn, `COc1ccc(NC2SC(=O)NC2=O)cc1` (configuration not stated) came in with a melting point of 180 to 181 °C.

`O=C(O)C=CC(=O)N(CC1CO1)NCC1CO1` (configuration not stated) registered a melting point of 58 °C.

For `Cc1cc(Br)cn2cc(-c3ccc(C#N)cc3)nc12`, the melting point is 209 to 210 °C.

`O=Cc1c(O)cccc1OCCCCC(=O)O` showed a melting point of 94 °C.

In the case of `CCOC(=O)CCC(NC(=O)c1ccc(CNCC2CNc3nc(NC(=O)C(C)(C)C)nc(O)c3C2)cc1)C(=O)OCC` (configuration not stated), the melting point lay within 146 to 147 °C.

For the compound `CNC(=O)c1cc(F)cc(Cl)c1Oc1cccc(OC)c1C`, the melting point was 127 to 128 °C.

In turn, `CC(=O)SCC(Cc1ccccc1)C(=O)NC(C)(C)C(=O)OCc1ccccc1` (configuration not stated) displayed a melting point of 83 to 85 °C.

Compound `O=C(O)Cc1ccc(NC(=O)C(Cn2ccnc2)NS(=O)(=O)c2ccc(F)cc2)cc1` (racemic) returned a melting point of 162 to 165 °C.

In turn, `COc1cc(Nc2nc3cccc(-c4ccc(CN)cc4)c3o2)cc(OC)c1OC` came in with a melting point of 208 to 211 °C.

As for `O=C(Nc1nnn[nH]1)c1cccc([N+](=O)[O-])c1`, the melting point worked out at 276 °C.

`Cn1ncc2c(=O)n3c(nc21)SC(C(=O)O)C3` (configuration not stated) gave a melting point of 274 to 276 °C.

Take `CCc1ccc(S(=O)(=O)CC#N)cc1`: the melting point fell in the range of 120 to 121 °C.

As to `CNc1cc(Oc2ccc(Cl)cc2Cn2cncn2)ccc1[N+](=O)[O-]`, the melting point is 150 °C.
